Experimental data reported in patent publication US20210153773A1, “DEVICE AND METHOD FOR DETECTION AND MONITORING OF COUGH” (priority 2019, published 2021).

Test system: cough reflex
Assay: Citric acid spray tussive challenge (cough provocation)
Settings: 50 mg/mL in distilled water, perfume sprayer held about 1 foot from the nose, ~0.07 to 0.10 mL per activation, every subject tested (n=10)
Protocol: When held at about 1 foot in front of the nose and activated, a fine spray of ˜0.07 to 0.10 mL is released per activation.

SMILES: O=C(O)CC(O)(CC(=O)O)C(=O)O [citric acid]
- number of coughs provoked by inhaled spray: one to six
